Reference: patent US20200375958A1, “MEMBRANE ACTIVE MOLECULES” (priority 2017, published 2020)
“And” between values parts separate entries of the source, which are not always exact repeats. Equal values may be shown once. Read-outs that look alike come from different tables or passages of the source.

Legend:
Tadpoles = assay: Tadpole anesthesia test (movement suppressed on contact with rod); type: in vivo
Description: Tadpoles were placed in a petri dish containing aquarium water. Four to eight tadpoles were placed in each petri dish. The aquarium water contained the specified test compound at the listed concentration. When the tadpoles stopped moving, a plastic rod was used to elicit motion once again by contact between the rod and tadpole. […] From this and the number of subjects, the percent of tadpoles in which movement was suppressed were calculated.
After 1 to 30 minutes, they were again contacted with a rod to ensure the anesthetic effect had worn off.
In some examples, subanesthetic concentrations of ethanol were added into the aquarium water. Tadpoles in which movement was prevented with exposure to a test compound and ethanol but not with exposure to a test compound alone were classified as partial anesthetics.

mouse = conditions: for Effect on the animals: 62.5 mM solution in intralipid; for Effect on the animals / Lethality to the animals: intravenous
Description: Butyric acid was dissolved in water to form an 8 M solution. 0.5 mL of the 8 M solution of butyric acid was injected subcutaneously (at the back of the neck) into the mouse.
3-hydroxybutyric acid was dissolved in water to form 1 M, 1.5 M, and 2 M solutions. 0.2 mL of a 1.5 M solution of 3-hydroxybutyric acid was injected into a tail vein of a CD-1 mouse. […] This was repeated for at least 2 more times on subsequent days.
Ethylmalonic acid was dissolved in water to form 2 M, 3 M, and 4 M solutions. 0.2 mL of a 3 M solution of ethylmalonic acid was injected into a tail vein of a mouse. […] This was repeated for at least 2 more times on subsequent days.
Ethylmalonic acid was dissolved in water to form a 4 M solution. 0.5 mL of the 4 M solution of ethylmalonic acid was injected subcutaneously into the mouse.

CF-1 mice = assay: Anticonvulsant test in mice: metrazol (pentylenetetrazol) tail vein infusion, time to twitch and seizure; type: in vivo, mouse
Description: CF-1 mice were used in this study. Number 20 PE tubing to cannulate a mouse tail vein was used. An infusion pump was used to deliver a solution at a rate of 0.34 mL/min. A hemostat was used to prevent backflow in the PE tubing before the experiment stated. To begin the experiment, the hemostat that was clamped to the PE 20 tubing was removed, the infusion of the solution was started into the tail IV of the mouse, and the timer was started.
The study reflects the time in seconds from the start of the infusion to the time of twitch and onset of seizure, or 90 seconds, whichever is sooner. When the seizure occurs, the infusion is turned off.
As a control, metrazol (pentylenetetrazol) in a 0.5% solution (5 mg/mL) in water was prepared. Pentylenetetrazol is used as a control to study seizure phenomena in and to identify compounds that may control seizure susceptibility. Solutions of 8 M butyric acid and 1.5 M 3-hydroxybutyric acid were made.
The time to twitch and time to seizure of the mouse in seconds is recorded in Tables 3-5, below.

[1] = read-out: Movement suppressed (%)
[2] = average of 8 mice, 1.5 M 3-hydroxybutyric acid solution plus metrazol
[3] = individual mice, 1.5 M 3-hydroxybutyric acid solution plus metrazol
[4] = average of 9 mice, metrazol alone
[5] = individual mice, metrazol 0.5% solution infused 0.34 mL/min tail vein
[6] = Concentration 62.5 mM in aquarium water

## CCC(O)C(=O)O (stereo not shown) [2-Hydroxybutyric acid, 2-hydroxybutyric acid]
Tadpoles; [1]
  responders at 125000 µM: 0%

## CC(C)(C)CC(=O)O [3,3-Dimethylbutyric acid, 3,3-Dimethylbutanoicacid]
Tadpoles; [1]
  responders at 25000 µM: 100%

## CC(C)(O)CC(=O)O [3-Hydroxy-3-methylbutyric acid, 3-Hydroxy-3-methylbutanoic acid]
Tadpoles; [1]
  responders at 1600 µM: 0%
  responders at 6250 µM: 0%
  responders at 25000 µM: 0%
  responders at 100000 µM: 100%

## CCC(C)C(=O)C(=O)O (stereo not shown) [3-Methyl-2-oxovaleric acid, 3-Methyl-2-oxopentanoic acid]
Tadpoles; [1]
  responders at 250000 µM: 33%

## Cc1cccc(C(=O)NCC(=O)O)c1 [3-Methylhippuric acid, (3-Methylbenzoyl)glycine]
Tadpoles; [1]
  responders at 3125 µM: 0%

## CCC(C)CC(=O)O (stereo not shown) [3-Methylvaleric acid, 3-Methylpentanoic acid]
Tadpoles; [1]
  responders at 20000 µM: 25%

## CC(O)CC(=O)O (stereo not shown) [3-hydroxybutyric acid]
mouse; 0.2 mL of 1.5 M solution in water, tail vein, CD-1 mouse
  Anesthetic effect on the mouse: became unconscious or anesthetic
mouse; 1 M solution in water, tail vein, CD-1 mouse
  Anesthetic effect on the mouse: did not have any observable effect
mouse; 2 M solution in water, tail vein, CD-1 mouse
  Lethality to the mouse: lethal
CF-1 mice; [2]
  3-Hydroxybutyric Acid and Metrazol Time to Seizures (seconds), Avg.: 56.9 s
  3-Hydroxybutyric Acid and Metrazol Time to Twitch (seconds), Avg.: 47.5 s
CF-1 mice; [3]
  3-Hydroxybutyric Acid and Metrazol Time to Seizures: 61 seconds and 74 seconds and 53 seconds (3×) and 48 seconds (2×) and 65 seconds
  3-Hydroxybutyric Acid and Metrazol Time to Twitch: 56 s and 54 s and 49 s and 47 s and 38 s and 50 s and 45 s and 41 s

## CC(=O)CCCC(=O)O [4-Acetylbutyric acid, 5-Oxohexanoic acid]
Tadpoles; [1]
  responders at 25000 µM: 0%

## Cc1ccc(C(=O)NCC(=O)O)cc1 [4-Methylhippuric acid, (4-Methylbenzoyl)glycine]
Tadpoles; [1]
  responders at 50000 µM: 0%
  responders at 150000 µM: 0%

## CC(C)CCC(=O)O [4-Methylvaleric acid]
Tadpoles; [1]
  responders at 20000 µM: 0%

## O=C(O)CCCCC(=O)O [Adipic acid, Hexanedioic acid]
Tadpoles; [1]
  responders at 50000 µM: 0%

## O=C(NC(O)C(=O)O)c1ccccc1 (stereo not drawn) [Alpha-Hydroxyhippuric acid, 2-Benzamido-2-hydroxyacetic acid]
Tadpoles; [1]
  responders at 5000 µM: 33%
  responders at 10000 µM: 100%

## N=C(N)NCCC[C@H](N)C(=O)O [Arginine]
Tadpoles; [1]
  responders at 46500 µM: 0%

## CC(C)(C(=O)O)C(=O)O [Dimethylmalonic acid]
Tadpoles; [1]
  responders at 125000 µM: 60%
  responders at 250000 µM: 60%

## CCO [Ethanol control, Ethanol, reference compound]
Tadpoles; [1]
  responders at 100000 µM: 0%
  responders at 150000 µM: 0%
  responders at 200000 µM: 0%
  responders at 250000 µM: 33%

## CCC(C(=O)O)C(=O)O [Ethyl Malonic Acid, 2-Ethylmalonic acid]
Tadpoles; [1]
  responders at 16000 µM: 0%
  responders at 62500 µM: 0%
  responders at 125000 µM: 100%
  responders at 250000 µM: 100%
mouse; 0.2 mL of 3 M solution in water, tail vein
  Anesthetic effect on the mouse: became unconscious
mouse; 0.5 mL of 4 M solution in water, subcutaneous
  Anesthetic effect on the mouse: became sedated, anesthetized, or lose consciousness
mouse; 2 M solution in water, tail vein
  Anesthetic effect on the mouse: did not have any observable effect
mouse; 4 M solution in water, tail vein
  Lethality to the mouse: lethal

## NC(=O)CC[C@H](N)C(=O)O [Glutamine]
Tadpoles; [1]
  responders at 25000 µM: 0%
  responders at 50000 µM: 100%
  responders at 100000 µM: 100%

## O=C(O)CCCC(=O)O [Glutaric acid]
Tadpoles; [1]
  responders at 7800 µM: 0%
  responders at 31000 µM: 0%
  responders at 125000 µM: 0%

## O=C(O)Cc1c[nH]c2ccccc12 [Indole-3-acetic acid, 2-(1H-indol-3-yl)acetic acid]
Tadpoles; [1]
  responders at 12500 µM: 0%

## CC[C@H](C)[C@H](N)C(=O)O [Isoleucine]
Tadpoles; [1]
  responders at 25000 µM: 0%

## CC(C)C(C(=O)O)C(=O)O [Isopropyl malonic acid, 2-isopropylmalonic acid]
Tadpoles; [1]
  responders at 1600 µM: 0%
  responders at 6250 µM: 0%
  responders at 25000 µM: 50%

## O=C(O)c1cc(O)c2ccccc2n1 [Kynurenic acid, 4-hydroxyquinoline-2-carboxylic acid]
Tadpoles; [1]
  responders at 12500 µM: 0%

## NC(=O)C[C@H](N)C(=O)O [L-Asparagine, Asparagine]
Tadpoles; [1]
  responders at 100000 µM: 0%

## N[C@@H](CO)C(=O)O [L-Serine, Serine]
Tadpoles; [1]
  responders at 114000 µM: 0%

## CC(C)[C@H](N)C(=O)O [L-valine, Valine]
Tadpoles; [1]
  responders at 7800 µM: 0%
  responders at 31000 µM: 0%
  responders at 125000 µM: 0%
  responders at 500000 µM: 40%

## O=C(O)C(O)c1ccccc1 (stereo not shown) [Mandelic acid, 2-Hydroxy-2-phenylacetic acid]
Tadpoles; [1]
  responders at 250000 µM: 0%
  responders at 300000 µM: 100%
  responders at 500000 µM: 100%

## C1CCc2nnnn2CC1 [Metrazol, pentylenetetrazol, reference compound]
CF-1 mice; [4]
  Metrazol alone Time to Seizures (seconds), Avg.: 45.7 s
  Metrazol alone Time to Twitch (seconds), Avg.: 37.3 s
CF-1 mice; [5]
  Metrazol alone Time to Seizures: 43 seconds (2×) and 42 seconds (2×) and 59 seconds and 45 seconds and 39 seconds and 49 seconds (2×)
  Metrazol alone Time to Twitch: 33 seconds and 36 seconds (2×) and 37 seconds and 52 seconds and 34 seconds (2×) and 31 seconds and 43 seconds

## O=C(O)C(=O)Cc1ccccc1 [Phenylpyruvic acid, 2-Oxo-3-phenylpropanoic acid]
Tadpoles; [1]
  responders at 62500 µM: 100%
  responders at 125000 µM: 100%

## O=C(O)[C@@H]1CCCN1 [Proline]
Tadpoles; [1]
  responders at 103000 µM: 0%

## O=C(O)c1ccc2ccccc2n1 [Quinaldic acid, Quinoline-2-carboxylic acid]
Tadpoles; [1]
  responders at 25000 µM: 16%

## C[C@@H](O)CC(=O)O [R-3-hydroxybutyric acid, (R)-3 -Hydroxybutanoic acid]
Tadpoles; [1]
  responders at 100000 µM: 0%
  responders at 200000 µM: 0%
  responders at 250000 µM: 0%
  responders at 300000 µM: 0%
  responders at 350000 µM: 0%
  responders at 400000 µM: 46%
  responders at 500000 µM: 100%

## C[C@H](O)CC(=O)O [S-3-hydroxybutyric acid, (S)-3-Hydroxybutanoic acid]
Tadpoles; [1]
  responders at 100000 µM: 0%
  responders at 200000 µM: 0%
  responders at 250000 µM: 14%
  responders at 300000 µM: 17%
  responders at 350000 µM: 50%
  responders at 400000 µM: 92%
  responders at 500000 µM: 100%

## O=C(O)CCCCCCC(=O)O [Suberic acid, Octanedioic acid]
Tadpoles; [1]
  responders at 10000 µM: 50%

## N[C@@H](Cc1c[nH]c2ccccc12)C(=O)O [Tryptophan]
Tadpoles; [1]
  responders at 12500 µM: 0%

## CCOC(=O)C(CC)C(=O)OCC [diethyl ethyl malonate, Diethyl ethyl malonate]
mouse
  Effect on the animals: lethargic and those loss coordination

## CCOC(=O)C(CC)(C(=O)OCC)c1ccccc1 [diethyl ethylphenylmalonate]
mouse
  Effect on the animals: lethargic and those loss coordination
mouse; 250 mM solution in intralipid
  Lethality to the animals: lethal
mouse; 1M solution in intralipid
  Lethality to the animals: lethal

## CCOC(=O)[C@@H](O)c1ccccc1 [ethyl (S)-(+)-mandelate]
mouse
  Effect on the animals: lethargic and those loss coordination
mouse; 250 mM solution in intralipid
  Lethality to the animals: lethal
mouse; 1M solution in intralipid
  Lethality to the animals: lethal

## CCCC(=O)OCC [ethyl butyrate]
mouse
  Effect on the animals: lethargic and those loss coordination
mouse; 250 mM solution in intralipid
  Lethality to the animals: lethal
mouse; 1M solution in intralipid
  Lethality to the animals: lethal

## Fumaric acid
Tadpoles; Concentration 25 mM in aquarium water
  Movement suppressed (%): 40%
Tadpoles; Concentration (mM) 25 + 150 EtOH
  Movement suppressed (%): 80%

## Glycine
Tadpoles; Concentration (mM) 250 + 150 EtOH
  Movement suppressed (%): 100%

## Guanidine
Tadpoles; [6]
  Movement suppressed (%): 0%
Tadpoles; Concentration (mM) 62.5 + 150 EtOH
  Movement suppressed (%): 100%

## Succinic acid
Tadpoles; [6]
  Movement suppressed (%): 0%
Tadpoles; Concentration (mM) 62.5 + 200 EtOH
  Movement suppressed (%): 66%

## Tartaric acid [L-Tartaric acid]
Tadpoles; Concentration 50 mM in aquarium water
  Movement suppressed (%): 0%
Tadpoles; Concentration (mM) 50 + 150 EtOH
  Movement suppressed (%): 100%

## ethyl isovaleric acid
mouse
  Effect on the animals: lethargic and those loss coordination
